Data reported in paper PMC11915509, “Small molecule inhibitors of hnRNPA2B1–RNA interactions reveal a predictable sorting of RNA subsets into extracellular vesicles” (Nucleic Acids Research, 2025).
“And” between values parts separate entries of the source, which are not always exact repeats. Identical values can stand only once. Counter-ions that a name gives are not always drawn. One block for each molecule: values may come before it.

Experiments:
[1] = target: T1, hnRNPA2B1-EXOmotif interaction (Homo sapiens, UniProt P22626); experiment: AlphaScreen dose-response, inhibition of hnRNPA2B1-EXOmotif RNA interaction; format: binding; conditions: AlphaScreen dose-response with RNA EXOmotif, one site fitting
T1 construct: purified a human full-length, GST-tagged protein expressed in Escherichia coli cells; made in house; host or cells: E. coli BL21 (DE3)
Protocol: The assays were performed in OptiPlate-384-well plates (PerkinElmer, 6007299) in 20 μl final volume. The ligands were diluted in AlphaBuffer [25 mM HEPES, pH 7.4, 100 mM NaCl, 0.01% bovine serum albumin (BSA)] and tested using AlphaScreen GST Detection Kit (PerkinElmer, 6760603C). […] For the reactions, 4 μl of the RNA probes were first added to the plate, then 16 μl of a mix containing all the other components was added, and the plate was incubated at room temperature for 1 h in the dark.
The high-throughput drug screening was performed in a total volume of 20 μl using 17 nM of RNA EXO motif (chosen below the hooking point), 30 nM GST-hnRNPA2B1, and 250 nM of compounds belonging to mass spectrometry (MS) Spectrum Collection library (MicroSource, 2000 compounds). Compounds were dispensed into white 384-well Optiplates (PerkinElmer) using Echo 650 acoustic dispenser (Beckman Coulter) followed by the addition of protein in Alpha Buffer using the EL460 dispenser (BioTek). After 15 min of incubation, RNA probes were added by Echo 650 acoustic dispenser, while Donor and Acceptor beads from the GST detection kit (Perkin Elmer) were dispensed by EL460 instrument. Following 60 min of incubation, Alpha signal was detected using Enspire plate reader instrument (PerkinElmer). The raw Alpha counts were normalized to Dimethyl sulfoxide (DMSO)-treated controls within every plate.

[2] = system: EV miR-221 from NSC34 cells; experiment: ddPCR of miR-221-3p in NSC34-derived EV-RNA; format: cell-based, mouse; conditions: NSC34-derived EVs, 6 h treatment
Protocol: EVs were isolated from HEK293T, NSC34, and smNPC-derived motor neurons using nickel-based isolation (NBI) or differential ultracentrifugation (UC). NBI protocol was performed as already described. Briefly, after a first centrifugation step at 2800 × g for 10 min, nickel beads were incubated for 30 min with serum-free media collected from cells in a ratio of 25 μl of beads per ml of medium. After a 2 min centrifugation at 600 g, particles were eluted from the beads by adding 1× elution buffer made of Solution A [16 mM ethylenediaminetetraacetic acid (EDTA), UltraPure, pH 8.0, Thermo Fisher] and Solution B (10 mM NaCl, 225 μM citric acid, Sigma–Aldrich) diluted five times in phosphate-buffered saline (PBS). After 15 min incubation at 28°C in a thermoshaker, the EVs were retrieved by 1-min centrifugation at 1800 × g and subjected to the following characterization. NBI was used to recover polydisperse EVs and include the RNA contribution from these for reverse proteomics experiments. The EV-RNA for reverse proteomics was pooled from three consecutive EV isolation procedures performed on a total of 30 T75 flasks (10 flasks each) of NSC34 cells grown until 80% confluence under standard conditions before washing with PBS and incubating with serum-free medium with glutamine and antibiotics. Differential UC was applied as an alternative EV isolation protocol to confirm the detection of hnRNPA2B1 protein. UC was performed by a SW 32 Ti swinging bucket rotor in an Optima XPN-100 ultracentrifuge (Beckman Coulter, Brea, CA, USA). The cell-conditioned serum-free media, after the first centrifugation step at 2800 × g for 10 min, was put in open-top Ultra-Clear centrifuge tubes (Beckman Coulter-344058) and subjected to 100 000 × g (100 K) UC for 70 min at 4°C under vacuum, with or without an additional step at 10 000 × g (10 K) to first sediment larger particles. Then the supernatant was removed, and the pellet was resuspended in 0.22 μm filtered PBS. Differential UC alone, consisting of 2800 × g for 10 min and 100 000 × g for 70 min, was applied for experiments reported in Fig. 5. […]
RNA from cells was extracted using TRI Reagent® (T9424, Sigma) following the manufacturer’s instructions. Thermo Fisher Nanodrop 2000 Spectrophotometer was used to assess the purity and quantity of extracted RNA. […] The elution was in 10–20 μl of RNase-free water and the RNA profiling and quantification was assessed by Agilent 2100 Bioanalyzer and RNA 6000 Pico Kit (5067-1513). Cell- and EV-RNAs were also analysed with DNF-472 HS RNA (15 nt) Kit (Agilent Technologies, Santa Clara, CA), according to the manufacturer. […] Results were analysed with Agilent ProSize data analysis software, that allows the analysis of RNA size, concentration and quality. […]

[3] = system: hnRNPA2B1 protein association with purine-rich RNA probe; experiment: RNA pull-down with biotinylated EXOmotif probe after cell treatment, immunoblotting; format: cell-based, mouse; conditions: NSC34 cells, 6 h, 5 μM compound
Protocol: To prepare native protein lysates, 1–3 × 10^6 NSC34 cells were lysed in buffer R-Lysis [25 mM HEPES, pH 7.5, 100 mM NaCl, 1× protease inhibitor (Thermo Fisher, 78429)] and subjected to a water-bath sonication (35–40 amplitude, 6–7 cycles of 7 s on and 45 s off). After a centrifugation at 14 000 rpm for 20 min at 4°C, the supernatant was collected and 200 μg were incubated with 5 μl of buffer equilibrated Dynabeads^TM M-280 Streptavidin (Invitrogen, 11205D) for 15 min at 4°C in rotation to perform a pre-clearing step. After the magnetic separation, the pre-cleared lysate was incubated with 10 μl of 100 μM RNA biotinylated probes (or 400 ng of biotinylated EV-RNA) and incubated for 1 h at 4°C in rotation. Then, 5 μl/sample of beads were added and the sample were put again in rotation for 20 min at 4°C. […]
Cells were lysed in lysis buffer [50 mM Tris–HCl, pH 7.4, 150 mM NaCl, 1 mM EDTA, 0.25% NP-40, 0.1% Triton X-100, 0.1% sodium dodecyl sulphate, 1× protease inhibitor (Thermo Fisher, 78429)]. […] The signal was measured with Amersham ECL HRP-Conjugated Antibodies (Cytiva) using BioRad Chemidoc XRS+.

NSC34 cells = experiment: Nanodrop quantification of total intracellular RNA after treatment; format: cell-based, mouse; conditions: 6 h treatment
Protocol: RNA from cells was extracted using TRI Reagent® ([…], Sigma) following the manufacturer's instructions. Thermo Fisher Nanodrop 2000 Spectrophotometer was used to assess the purity and quantity of extracted RNA. RNA from EVs was extracted using Single Cell RNA Isolation Kit (51800, Norgen) following the manufacturer's protocol. The elution was in 10-20 μl of RNase-free water and the RNA profiling and quantification was assessed by Agilent 2100 Bioanalyzer and RNA 6000 Pico Kit (5067-1513). Cell- and EV-RNAs were also analysed with DNF-472 HS RNA (15 nt) Kit (Agilent Technologies, Santa Clara, CA), according to the manufacturer. Briefly, 2 μl of RNA samples concentrated within a range of 50-5000 pg/μl and RNA Ladder were added to Diluent Marker, denatured at 70°C for 2 min and loaded. Results were analysed with Agilent ProSize data analysis software, that allows the analysis of RNA size, concentration and quality. Through a Peak Analysis it was possible to access the concentration of each peak recognized by the software. Half a nanogram of extracted RNA from cells and EVs was used as input for complementary DNA (cDNA) synthesis. cDNA was produced using TaqManTM Advanced miRNA cDNA Synthesis Kit (Applied BiosystemsTM, A28007) following manufacturers' instructions and used for droplet digital polymerase chain reaction (PCR) experiments.

EXO-motif RNA probe = experiment: Absorbance scan of compounds mixed with EXO-motif RNA; format: binding; conditions: EXO-motif RNA probe, 1:5 micromolar ratio
Protocol: (§1) Five μM RNA EXO motif were mixed with 25 μM compounds in AlphaBuffer (25 mM HEPES, pH 7.4, 100 mM NaCl, 0.01% BSA) to a final volume of 20 μl. Absorbance spectrum (200–530 nm) was measured using Tecan Spark® microplate reader with a NanoQuant plate at room temperature. In fluorescence indicator displacement (FID), a 2× final concentration of Midori green advanced (Resnova) was added to the samples and the melting curve measured using Bio-Rad CFX96™ System from 30°C to 90°C.

[4] = system: hnRNPA2B1 and TDP43 bound RNA (miR-221, miR-1910); experiment: RNA immunoprecipitation (RIP) on cytoplasmic lysates of treated NSC34 cells; format: cell-based, mouse; conditions: 6 h treatment, anti-hnRNPA2B1 and anti-TDP43 RIP
Protocol: Flow cytometry of a fraction of RNA immunoprecipitation (RIP) experiments, consisting of RNA/protein-antibody-bead complexes, was performed on the same instrument using a sequential gating with Streptavidin beads alone ± antibodies (this signal corresponded to background). Pyronin Y (PY) was used at a final concentration of 50 ng/ml and the PY-positive events recorded for 1 min.
Approximately 2 × 10^6 cells were used for each RIP experiment, performed as already described, without cross-linking steps and using 0.5 μg/ml of antibodies. Beads-precipitated samples were divided for immunoblotting or TRIzol-based RNA isolation. Densitometric analysis obtained using Image J software (v.1.54). miRNA TaqMan probes were bought from Thermo Fisher with the following codes: miR-221 (477 981), miR-1910 (479 581), and miR-126 (4 427 975).

EXO-motif RNA = experiment: Fluorescence indicator displacement (FID) melting curve, EXO-motif RNA; format: binding; conditions: 5 μM RNA, 25 μM compound, Midori green
Protocol: as §1

GST-hnRNPA2B1 [5] = target: T2, GST-hnRNPA2B1 (Homo sapiens, UniProt P22626 1-353); experiment: AlphaScreen saturation binding; near-background counts; AlphaScreen: 25 mM HEPES pH 7.4, 100 mM NaCl, 0.01% BSA, RT 1 h; REMSA: 20 mM HEPES pH 7.5, 50 mM KCl, 0.5 ug BSA, 0.25% glycerol, RT; pull-down: 25 mM HEPES pH 7.5, 100 mM NaCl, 4 C; conditions: protein: recombinant; tags: N-terminal GST (pGEX-6P-1); label: 5'-biotin-TEG; single strand
GST-hnRNPA2B1 [6] = target: T2, GST-hnRNPA2B1; experiment: AlphaScreen saturation binding; AlphaScreen: 25 mM HEPES pH 7.4, 100 mM NaCl, 0.01% BSA, RT 1 h; REMSA: 20 mM HEPES pH 7.5, 50 mM KCl, 0.5 ug BSA, 0.25% glycerol, RT; pull-down: 25 mM HEPES pH 7.5, 100 mM NaCl, 4 C; conditions: protein: recombinant; tags: N-terminal GST (pGEX-6P-1); label: 5'-biotin-TEG; single strand; weak predicted secondary structure (-0.5 kcal/mol)
GST-hnRNPA2B1 [7] = target: T2, GST-hnRNPA2B1; experiment: AlphaScreen kinetics (koff/kon); 30 nM protein; kon 523664 M-1 min-1, koff 0.02091 min-1; AlphaScreen: 25 mM HEPES pH 7.4, 100 mM NaCl, 0.01% BSA, RT 1 h; REMSA: 20 mM HEPES pH 7.5, 50 mM KCl, 0.5 ug BSA, 0.25% glycerol, RT; pull-down: 25 mM HEPES pH 7.5, 100 mM NaCl, 4 C; conditions: protein: recombinant; tags: N-terminal GST (pGEX-6P-1); label: 5'-biotin-TEG; single strand; weak predicted secondary structure (-0.5 kcal/mol)

T1 sequence (P22626 whole entry): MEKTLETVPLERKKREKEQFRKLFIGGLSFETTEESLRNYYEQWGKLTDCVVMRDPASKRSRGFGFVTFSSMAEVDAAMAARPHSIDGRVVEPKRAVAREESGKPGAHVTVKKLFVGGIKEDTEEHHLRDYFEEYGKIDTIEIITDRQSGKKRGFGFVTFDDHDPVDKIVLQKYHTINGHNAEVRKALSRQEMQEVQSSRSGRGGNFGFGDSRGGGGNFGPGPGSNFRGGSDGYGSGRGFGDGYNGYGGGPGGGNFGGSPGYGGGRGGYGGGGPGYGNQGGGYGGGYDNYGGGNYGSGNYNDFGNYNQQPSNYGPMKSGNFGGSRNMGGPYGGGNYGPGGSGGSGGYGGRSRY
T2 sequence (P22626 whole entry): as above

IC50 [1]: ~250 nM and 250 nM
Molecule: O=C(O)C1=CC(=C(c2ccc(O)c(C(=O)O)c2)c2ccc(O)c(C(=O)O)c2)C=CC1=O [ATA, aurin tricarboxylic Acid, reference compound]

IC50 [1]: 100 nM
Molecule: C=C1c2cccc(O)c2C(=O)C2=C(O)[C@]3(O)C(=O)C(C(N)=O)=C(O)[C@@H](N(C)C)[C@@H]3[C@@H](O)[C@H]12 [MH, methacycline hydrochloride, reference compound]
vesicular miR-221, copy number normalized on Y3 RNA and DMSO [2]: vesicular depletion
association of hnRNPA2B1 protein with exogenous purine-rich RNA probe [3]: most effective

Molecule: CC(C)=CC1C(C(=O)OCc2cccc(Oc3ccccc3)c2)C1(C)C (centres unmarked) [P, phenotrin]
IC50 [1]: ~120 nM and 122 nM
accumulation of intracellular RNAs (NSC34 cells): significantly higher
spectroscopic changes at 230 nm (EXO-motif RNA probe): main spectroscopic changes
percentage of bound targets (miR-221, miR-1910) [4]: significantly reduced
vesicular miR-221, copy number normalized on Y3 RNA and DMSO [2]: vesicular depletion

Molecule: O=C(O[C@@H]1Cc2c(O)cc(O)cc2O[C@@H]1c1cc(O)c(=O)c2c(O)c(O)cc([C@H]3Oc4cc(O)cc(O)c4C[C@H]3OC(=O)c3cc(O)c(O)c(O)c3)c2c1)c1cc(O)c(O)c(O)c1 [TD, theaflavin digallate]
vesicular miR-221, copy number normalized on Y3 RNA and DMSO [2]: vesicular depletion

thermal shift of the EXO-motif RNA (EXO-motif RNA): 6.3 °C
Molecule: neomycin [reference compound]

Molecule: AGGACUGC (ssRNA) [RNA 276]
binding result (GST-hnRNPA2B1 [5]): no binding

Molecule: GGGGAGGUUAGGGAGGAGGGGGGUAGGCGCC (ssRNA) [EXOmotif RNA (biotin)]
Kd (GST-hnRNPA2B1 [6]): 3.4 ± 1.6 nM
Kd (GST-hnRNPA2B1 [7]): 40 ± 3 nM
